Source: patent US20250230138A1, “COMPOUNDS HAVING A T-STRUCTURE FORMED BY AT LEAST FOUR CYCLES FOR USE IN THE TREATMENT OF CANCER AND OTHER INDICATIONS” (TheRas, Inc., priority 2022, published 2025)
Like-named read-outs stand apart in the source and are kept apart here.

Experiments:
pAKT in BT474 cells = assay: Cell-based pAKT HTRF assay in BT474 cells; details: BT474 cells, 4 hr incubation, read-out: pAKT inhibition IC50 in BT474 cells
Procedure, shortened: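 Treatment lasts 4 hr in DMEM/10% FBS at 0.25% DMSO over nine 3-fold dilutions from 3 μM. The lysate is then probed by HTRF.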

[1] = molecular target: Cys242 in human PIK3CA (157-299) (Homo sapiens (Human), UniProt P42336); assay: Covalent modification assay using MALDI-TOF MS; assay type: biochemical; details: 4 h reaction time point
Procedure, shortened: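 PIK3CA (157-299), 3.33 or 1 μM in 20 mM HEPES, 150 mM NaCl, 2 mM MgCl2, pH 7.3, was incubated with compound at room temperature in the dark for 15 min, 30 min, 2 h or 4 h. Linear MALDI-TOF read-out; % modification = adduct peak height over summed heights of all protein species.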

[2] = 1 μM protein target, 1:5 protein to compound ratio (compounds 853-1279)
[3] = 3.33 μM protein target, 1:7.5 protein to compound ratio (compounds 1-852)
[4] = Homo sapiens, BT-474, Compounds 10-999

Cys242 in human PIK3CA (157-299), sequence (P42336 157-299): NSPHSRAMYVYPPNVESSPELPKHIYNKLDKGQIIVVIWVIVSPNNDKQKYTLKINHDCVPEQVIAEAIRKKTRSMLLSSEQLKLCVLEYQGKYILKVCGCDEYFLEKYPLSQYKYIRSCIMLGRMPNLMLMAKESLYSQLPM

| Compound | IC50 (pAKT in BT474 cells; Compounds 10-999) [µM] | % of modification [1, 2] | % of modification [1, 3] | IC50 (pAKT in BT474 cells; Compounds 1000-1279) [µM] | IC50 (pAKT in BT474 cells; [4]) [µM] |
| --- | --- | --- | --- | --- | --- |
| C=CC(=O)N1CCn2nc(-c3nc(-c4ccc5c(c4)CCNC5=O)c4ccsc4c3-c3c(F)cc(F)cc3OC[C@@H](C)O)cc2[C@H]1C [Compound 894] | < 0.1 | A (percent of modification of PIK3CA protein ≥75%) | – | – | – |
| C=CC(=O)N1CCC(n2cc(-c3nc(-c4cnn5c4C(=O)NCC5)c4ccsc4c3-c3ccc(F)cc3OCCOC)cn2)CC1 [Compound 230] | 0.1 to 1 | – | B (50%<percent of modification <75%) | – | – |
| C=CC(=O)N1CCc2ccc(-c3nc(-c4cnc(N5CCN(C)CC5)nc4)c4ccsc4c3-c3c(F)cc(F)cc3OCCOC)cc2C1 [Compound 1106] | – | A (percent of modification of PIK3CA protein ≥75%) | – | 0.1 to 1 | – |
| C=C(F)C(=O)N1CCn2nc(-c3nc(-c4cncc(C#N)c4)c4ccsc4c3-c3ccc(F)cc3OC(C)C)cc2C1 [Compound 303] | 0.1 to 1 | – | A (percent of modification of PIK3CA protein ≥75%) | – | – |
| C=CC(=O)N1CCn2nc(-c3nc(N4CC5(CCN(C)C5)C4)c4ccsc4c3-c3c(F)cc(F)cc3OCCOC)cc2C1C (stereo not shown) [Compound 1054] | – | C (25%≤percent of modification <50%) | – | 0.1 to 1 | – |
| C=CC(=O)N1CCn2nc(-c3nc(-c4ccc5nn(C)cc5c4)c4ccsc4c3-c3c(F)cc(F)cc3OCCO)cc2[C@@H]1C [Compound 644] | < 0.1 | – | A (percent of modification of PIK3CA protein ≥75%) | – | – |
| C=CC(=O)N1CCn2nc(-c3nc(N4CCC5(CC4)COC5)c4ccsc4c3-c3ccc(F)cc3OC(C)C)cc2C1 [Compound 207] | < 0.1 | – | A (percent of modification of PIK3CA protein ≥75%) | – | – |
| C=CC(=O)N1CCn2nc(-c3nc(-c4cnn(C)c4)c4ccsc4c3-c3c(F)cc(F)cc3OCCO)cc2[C@@H]1C [Compound 640] | < 0.1 | – | A (percent of modification of PIK3CA protein ≥75%) | – | – |
| C=CC(=O)N1CCn2nc(-c3nc(-c4ccc5c(c4)CN(C)CC5)c4c(c3-c3c(F)cc(F)cc3OCCOC)CCC4)cc2C1C (stereo not shown) [Compound 1244] | – | A (percent of modification of PIK3CA protein ≥75%) | – | < 0.1 | – |
| C=CC(=O)N1Cc2cc(-c3nc(-c4ccc5oc(C)nc5c4)c4ccsc4c3-c3c(F)cc(F)cc3OCC(C)O)nn2C(C)C1 (stereo not shown) [Compound 683] | < 0.1 | – | A (percent of modification of PIK3CA protein ≥75%) | – | – |
| C=CC(=O)N1Cc2cc(-c3nc(-c4cn(C)cn4)c4ccsc4c3-c3c(F)cc(F)cc3OCC(C)(C)O)nn2[C@@H](C)C1 [Compound 883] | < 0.1 | A (percent of modification of PIK3CA protein ≥75%) | – | – | – |
| C=CC(=O)N1CCc2nc(-c3nc(-c4cnc5c(c4)CNC(=O)C5)c4ccsc4c3-c3c(F)cc(F)cc3OC(C)C)sc2C1 (single isomer, unassigned) [Compound 587] | > 3 | – | D (percent of modification <25%) | – | – |
| C=CC(=O)N1CCn2nc(-c3nc(-c4ccc5c(c4)CN(CC(F)(F)F)CC5)c4ccsc4c3-c3c(F)cc(F)cc3OCCOC)cc2C1C (stereo not shown) [Compound 1252] | – | A (percent of modification of PIK3CA protein ≥75%) | – | < 0.1 | – |
| C=CC(=O)N1CCn2nc(-c3nc(-c4ccc5c(c4)CNC(=O)C54CC4)c4ccsc4c3-c3c(F)cc(F)cc3OCCO)cc2C1C (stereo not shown) [Compound 1119] | – | A (percent of modification of PIK3CA protein ≥75%) | – | < 0.1 | – |
| C=CC(=O)N1CCn2nc(-c3nc(-c4ccc5c(c4)CNC(=O)C5)c4ccsc4c3-c3c(F)cc(F)cc3OCCO)cc2[C@H]1C [Compound 890] | < 0.1 | A (percent of modification of PIK3CA protein ≥75%) | – | – | – |
| C=CC(=O)N1CCn2nc(-c3nc(-c4ccc(=O)n(C5CN(C)C5)c4)c4ccsc4c3-c3c(F)cc(F)cc3OCCOC)cc2C1C (stereo not shown) [Compound 1031] | – | B (50%<percent of modification <75%) | – | 0.1 to 1 | – |
| C=CC(=O)N1CCn2nc(-c3nc(-c4ccc5cnn(C)c5c4)c4ccsc4c3-c3c(F)cc(F)cc3OCC(C)O)cc2C1C (stereo not shown) [Compound 769] | < 0.1 | – | A (percent of modification of PIK3CA protein ≥75%) | – | – |
| C=CC(=O)N1CCn2nc(-c3nc(-c4ccc5oc(C)nc5c4)c4ccsc4c3-c3c(F)cc(F)cc3OCCO)cc2C1C (stereo not shown) [Compound 789] | < 0.1 | – | A (percent of modification of PIK3CA protein ≥75%) | – | – |

| Compound | IC50 (pAKT in BT474 cells; Compounds 10-999) [µM] | % of modification [1, 2] | % of modification [1, 3] | IC50 (pAKT in BT474 cells; Compounds 1000-1279) [µM] | IC50 (pAKT in BT474 cells; [4]) [µM] |
| --- | --- | --- | --- | --- | --- |
| C=CC(=O)N1Cc2cc(-c3nc(-c4cnn(C)c4)c4ccsc4c3-c3c(F)cc(F)cc3OC[C@@H](C)O)nn2C[C@H]1C [Compound 724] | < 0.1 | – | A (percent of modification of PIK3CA protein ≥75%) | – | – |
| C=CC(=O)N1CCn2nc(-c3nc(-c4cnn(C)c(=O)c4)c4ccsc4c3-c3c(F)cc(F)cc3OCCOC)cc2C1C (stereo not shown) [Compound 984] | < 0.1 | A (percent of modification of PIK3CA protein ≥75%) | – | – | – |
| C=CC(=O)N1CCC(n2cc(-c3nc(-c4ccc5c(c4)CS(=O)(=O)C5)c4ccsc4c3-c3ccc(F)cc3OCCOC)cn2)CC1 [Compound 61] | < 0.1 | – | A (percent of modification of PIK3CA protein ≥75%) | – | – |
| C=CC(=O)N1Cc2cc(-c3nc(-c4ccc5c(c4)CN(C)C5=O)c4ccsc4c3-c3c(F)cc(F)cc3OCCOC)nn2C[C@H]1C [Compound 795] | < 0.1 | – | A (percent of modification of PIK3CA protein ≥75%) | – | – |
| C=CC(=O)N1CCc2ccc(-c3nc(-c4cnc5c(c4)CNC(=O)C5)c4ccsc4c3-c3c(F)cc(F)cc3OCCOC)cc2C1 [Compound 580, (S)-3-(6-(2-acryloyl-1,2,3,4-tetrahydroisoquinolin-7-yl)-7-(2,4-difluoro-6-(2-methoxyethoxy)phenyl)thieno[3,2-c]pyridin-4-yl)-5,8-dihydro-1,6-naphthyridin-7(6H)-one] | < 0.1 | – | A (percent of modification of PIK3CA protein ≥75%) | – | – |
| C=CC(=O)N1C[C@H](C)n2nc(-c3nc(-c4ccc5c(c4)CCN(C)C5)c4ccsc4c3-c3c(F)cc(F)cc3OCCOC)cc2[C@@H]1C [Compound 601, 1-[(4S,7S)-2-[7-[2,4-difluoro-6-(2-methoxyethoxy)phenyl]-4-(2-methyl-3,4-dihydro-1H-isoquinolin-6-yl)thieno[3,2-c]pyridin-6-yl]-4,7-dimethyl-6,7-dihydro-4H-pyrazolo[1,5-a]pyrazin-5-yl]prop-2-en-1-one] | – | – | A (percent of modification of PIK3CA protein ≥75%) | – | < 0.1 |
| C=CC(=O)N1CCn2nc(-c3nc(-c4cc5c(cc4OC)C(=O)NC5)c4ccsc4c3-c3c(F)cc(F)cc3OCCOC)cc2[C@H]1C [Compound 1063] | – | A (percent of modification of PIK3CA protein ≥75%) | – | < 0.1 | – |
| C=CC(=O)N1CC(n2cc(-c3nc(-c4ccc(C(N)=O)cc4)c4ccsc4c3-c3ccc(F)cc3OC)cn2)C1 [Compound 172] | < 0.1 | – | A (percent of modification of PIK3CA protein ≥75%) | – | – |
| C=CC(=O)N1CCn2nc(-c3nc(-c4cccc(CCN(C)C)c4)c4ccsc4c3-c3c(F)cc(F)cc3OCCOC)cc2C1C (stereo not shown) [Compound 1084] | – | A (percent of modification of PIK3CA protein ≥75%) | – | < 0.1 | – |
| C=CC(=O)N1Cc2cc(-c3nc(-c4cnc5oc(C)nc5c4)c4ccsc4c3-c3c(F)cc(F)cc3OCCOC)nn2C[C@H]1C [Compound 825] | < 0.1 | – | A (percent of modification of PIK3CA protein ≥75%) | – | – |
| C=CC(=O)N1CCc2ncc(-c3nc(-c4ccc5c(c4)CNC5=O)c4ccsc4c3-c3c(F)cc(F)cc3OC(C)C)cc2C1 [Compound 326] | < 0.1 | – | A (percent of modification of PIK3CA protein ≥75%) | – | – |
| C=CC(=O)N1CCc2ncc(-c3nc(-c4ccn(C)c(=O)c4)c4ccsc4c3-c3c(F)cc(F)cc3OCCOC)cc2C1 [Compound 374] | < 0.1 | – | A (percent of modification of PIK3CA protein ≥75%) | – | – |
| C=CC(=O)N1Cc2cc(-c3nc(-c4cnc5c(c4)CNC5=O)c4ccsc4c3-c3c(F)cc(F)cc3OCCOC)nn2CC1C (stereo not shown) [Compound 554] | < 0.1 | – | A (percent of modification of PIK3CA protein ≥75%) | – | – |
| C=CC(=O)N1CCn2nc(-c3nc(-c4ccc(=O)n(C)c4)c4ccsc4c3-c3ccc(F)cc3OC(F)F)cc2C1 [Compound 223] | < 0.1 | – | A (percent of modification of PIK3CA protein ≥75%) | – | – |
| C=CC(=O)N1CCC(n2cc(-c3nc(-c4cnn5c4NCCC5)c4ccsc4c3-c3ccc(F)cc3OCCOC)cn2)CC1 [Compound 68] | 0.1 to 1 | – | A (percent of modification of PIK3CA protein ≥75%) | – | – |
| C=CC(=O)N1CC[C@@H](n2cc(-c3nc(-c4cnnc(C)c4)c4ccsc4c3-c3c(F)cc(F)cc3OC(C)C)cn2)C1 [Compound 391] | < 0.1 | – | A (percent of modification of PIK3CA protein ≥75%) | – | – |
| C=CC(=O)N1CCc2ncc(-c3nc(-c4ccc5c(c4)CCNC5)c4ccsc4c3-c3ccc(F)cc3OCCOC)cc2C1 [Compound 62, 1-[3-[7-[4-fluoro-2-(2-methoxyethoxy)phenyl]-4-(1,2,3,4-tetrahydroisoquinolin-6-yl)thieno[3,2-c]pyridin-6-yl]-7,8-dihydro-5H-1,6-naphthyridin-6-yl]prop-2-en-1-one] | – | – | A (percent of modification of PIK3CA protein ≥75%) | – | < 0.1 |
